Experimental data from patent publication US20170280720A1, “ARGININE […] INHIBITORS AND USES THEREOF” (EPIZYME, INC., priority 2014, published 2017).

test system: asymmetric di-methyl PABP1 in RKO cells; test: In Cell Western (ICW) for asymmetric di-methyl PABP1 and DNA content in RKO cells; assay type: cell-based; conditions: 48 hours
Summary of the method: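 RKO cells treated with compound for 48 h at 37 °C, then fixed, methanol-permeabilized and stained for asymmetric di-methyl PABP1 (800 nm) with DRAQ5 DNA stain (700 nm). Signal ratio normalized to DMSO and 20 μM reference-compound controls. IC50 from nine 3-fold dilutions in triplicate.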

| Compound | IC50 [µM] |
| --- | --- |
| Cc1cc(C)c(CNC(=O)c2cc(-c3cccc(CN(C)CCN)c3)nc3c2cnn3C(C)C)c(=O)[nH]1 [Compound 360] | 0.934 |
| CNCCN(C)Cc1cccc(-c2cc(C(=O)NCc3c(C)cc(C)[nH]c3=O)c3cnn(C(C)C)c3c2)c1 [Compound 367] | 6.48 |
| CNCCN(C)Cc1cccc(-c2cc(C(=O)NCc3c(C)cc(C)[nH]c3=O)c3cnn(C(C)C)c3n2)c1 [Compound 368] | 1.01 |
| CNCCN(C)Cc1cccc(-c2cc(C(=O)NCc3c(C)cc(C)[nH]c3=O)c(C)c3[nH]ncc23)c1 [Compound 372] | ≥ 20 |

same assay, conditions: Homo sapiens, RKO, 48 h

| IC50 [µM] | Compound |
| --- | --- |
| ≥ 20 | CNCCN(C)Cc1ccc(-c2cc(C(=O)NCc3c(C)cc(C)[nH]c3=O)c(C)c3n[nH]cc23)cc1 [Compound 362] |

same assay, conditions: Homo sapiens, RKO, In Cell Western

| IC50 [µM] | Compound |
| --- | --- |
| 0.897 | CNCCN(C)Cc1cccc(-c2nc(C(=O)NCc3cn4ccsc4n3)c3cnn(C4CC4)c3n2)c1 [Compound 180] |
| 3.55 | CNCCN(C)Cc1cccc(-c2cc(C(=O)NCc3ccncc3)c3cnn(C(C)C)c3n2)c1 [Compound 182] |
| 9.56 | CC(C)n1ncc2c(C(=O)N(C)CC3CCOCC3)cc(-c3cccc(CN(C)CCN)c3)nc21 [Compound 256] |
| 20 | CN(CCN)Cc1cccc(-c2ccc(C(=O)NCC3CCOCC3)c(N(C)CC3CC3)c2)c1 [Compound 263] |
| 6.38 | CNCCN(C)Cc1cccc(-c2cc(C(=O)N(C)Cc3ccccn3)c3cnn(C(C)C)c3n2)c1 [Compound 300] |
